Series [1] has as its target CYP3A4 (Homo sapiens, UniProt P08684). As to the kind of experiment: CYP3A4 interaction. In kind it is in vitro ADME.
For series [2], the system named is COLO 205. As to the kind of experiment: 72 hr cell titer Glo proliferation assay, COLO 205. It is filed as cell-based. The settings on record: Homo sapiens, single agent, COLO 205, BRAFV600E. On the procedure:
(§1) All cell lines express the BRAFV600E protein, except MDST8 which expresses the BRAFV600K variant. Cells harboring known or putative activating mutations in the PI3Kα gene are marked with a (*) and cells with PTEN loss marked with a (#). Cell proliferation was measured in 72 hr cell titer Glo™ assays and all results shown are the result of at least triplicate measurements. […] Interactions were deemed synergistic when scores ≧2.0 where observed.
Background: ATP-based viability assays read luminescence as a measure of living cells.

The target of series [3] is T1, BCRP (Homo sapiens, UniProt Q9UNQ0).
T1 sequence (Q9UNQ0 1-655): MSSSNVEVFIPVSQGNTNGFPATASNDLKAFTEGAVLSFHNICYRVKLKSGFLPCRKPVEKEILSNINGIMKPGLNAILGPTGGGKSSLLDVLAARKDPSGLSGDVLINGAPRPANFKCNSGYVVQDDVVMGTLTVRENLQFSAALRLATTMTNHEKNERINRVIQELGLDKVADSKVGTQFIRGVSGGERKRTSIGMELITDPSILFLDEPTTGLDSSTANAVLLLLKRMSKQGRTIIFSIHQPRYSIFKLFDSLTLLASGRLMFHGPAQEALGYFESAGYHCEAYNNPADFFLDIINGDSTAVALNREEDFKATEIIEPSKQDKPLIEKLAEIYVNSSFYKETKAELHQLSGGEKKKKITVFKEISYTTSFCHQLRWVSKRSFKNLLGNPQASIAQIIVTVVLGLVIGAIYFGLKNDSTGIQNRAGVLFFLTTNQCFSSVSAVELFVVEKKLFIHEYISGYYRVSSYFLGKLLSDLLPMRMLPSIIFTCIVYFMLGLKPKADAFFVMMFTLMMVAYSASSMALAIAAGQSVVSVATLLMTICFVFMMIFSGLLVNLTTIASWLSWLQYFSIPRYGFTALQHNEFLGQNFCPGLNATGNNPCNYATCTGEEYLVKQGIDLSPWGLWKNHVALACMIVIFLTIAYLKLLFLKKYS
Kind of series: BCRP interaction. In kind it is in vitro ADME.

The test system of series [4] is LS411N. Kind of series: 72 hr cell titer Glo proliferation assay, LS411N. It is filed as cell-based. The settings on record: Homo sapiens, LS-411N, single agent, BRAFV600E. As for the experimental part: as §1
The subject of series [5] is OUMS-23. As to the kind of experiment: 72 hr cell titer Glo proliferation assay, OUMS-23. In kind it is cell-based. The settings on record: single agent, OUMS-23 (PTEN loss), BRAFV600E. As for the experimental part:
as §1

The test system of series [6] is CL-34. Kind of series: 72 hr cell titer Glo proliferation assay, CL-34. In kind it is cell-based. Conditions: single agent, CL-34, BRAFV600E. On the procedure: as §1
Series [7] concerns HT-29 human colorectal adenocarcinoma xenograft. In kind it is in vivo. Conditions: for T/C: D29, 100×ΔT/ΔC for ΔT>0; for T/C / Mean Volume Day 1 / Mean Volume Day 29 / Mean Volume Change (ΔT): Cpd A 20 mg/kg po bid x 28, Cpd B 25 mg/kg po qd x 28, cetuximab 20 mg/kg ip biwk x 4, paclitaxel 30 mg/kg iv qod x 5; for Mean Volume Day 1: Day 1, start of dosing; for Mean Volume Change (ΔT): between D1 and D29; for Mean BW Nadir, day of nadir / Deaths NTR / Deaths TR / Regressions CR / Regressions PR: doses as in table; for Deaths NTR / Deaths TR / Regressions CR / Regressions PR: n = 10 per group; for Statistical Significance vs G1: vs Group 1 (vehicles), tumor volume change D1-D29. As for the experimental part: A fresh suspension was prepared every two weeks and stored at room temperature.
A fresh suspension was prepared weekly and stored at 4° C.
Dosing solutions were freshly prepared for one group at a time.
Each agent was administered at a single dose level, individually and in dual and triple combinations, that were initiated on Day 1 (D1) in female nude mice with established subcutaneous tumors. […] Efficacy was determined from mean tumor volume changes between D1 and D29. Prism summarizes test results as not significant (ns) at P>0.05, significant (symbolized by “*”) at 0.01<P≦0.05, very significant (“**”) at 0.001<P≦0.01, and extremely significant (“***”) at P≦0.001.
For the purpose of statistical analyses, ΔTV, the difference in tumor volume between D1 (the start of dosing) and the endpoint day, was determined for every animal. […] The […] values are negative represent net tumor reduction for a group. […] Response to Combination Therapies (Groups 5-8)

Series [8] relates to MDST8. Kind of series: 72 hr cell titer Glo proliferation assay, MDST8. It is filed as cell-based. The settings on record: single agent, MDST8, BRAFV600K. As for the experimental part:
as §1

Series [9] relates to BRAF-mutant CRC-derived cell lines. As to the kind of experiment: Proliferation of BRAF-mutant CRC-derived cell lines, panel summary. In kind it is cell-based. The settings on record: all cell lines tested. On the procedure:
as §1

Series [10] relates to HT-29. As to the kind of experiment: 72 hr cell titer Glo proliferation assay, HT-29. The settings on record: Homo sapiens, single agent, HT-29 (PI3Kα mutation), BRAFV600E. In kind it is cell-based. On the procedure: as §1
The subject of series [11] is SNU-C5. As to the kind of experiment: 72 hr cell titer Glo proliferation assay, SNU-C5. It is filed as cell-based. Conditions: single agent, SNU-C5 (PI3Kα mutation), BRAFV600E. As for the experimental part:
as §1

For series [12], the system named is RKO. As to the kind of experiment: 72 hr cell titer Glo proliferation assay, RKO. It is filed as cell-based. The settings on record: Homo sapiens, single agent, RKO (PI3Kα mutation), BRAFV600E. As for the experimental part:
as §1

Series [13] concerns SW1417. Kind of series: 72 hr cell titer Glo proliferation assay, SW1417. It is filed as cell-based. Conditions: Homo sapiens, single agent, SW1417, BRAFV600E. On the procedure:
as §1

Series [14] can be described thus: Rat ADME bioavailability. In kind it is in vivo. The settings on record: pre-clinical.

SMILES strings stand for the structures.

A word on the IC50: it is the point on the concentration scale where inhibition reaches its midpoint. The term T/C denotes the result in the treated group divided by that in the control group, in per cent. A word on the bioavailability: it is the share of a dose that reaches the circulation, judged against a reference dose that is usually intravenous. A high value points to much systemic uptake.

Sequence of CYP3A4 (P08684 whole entry): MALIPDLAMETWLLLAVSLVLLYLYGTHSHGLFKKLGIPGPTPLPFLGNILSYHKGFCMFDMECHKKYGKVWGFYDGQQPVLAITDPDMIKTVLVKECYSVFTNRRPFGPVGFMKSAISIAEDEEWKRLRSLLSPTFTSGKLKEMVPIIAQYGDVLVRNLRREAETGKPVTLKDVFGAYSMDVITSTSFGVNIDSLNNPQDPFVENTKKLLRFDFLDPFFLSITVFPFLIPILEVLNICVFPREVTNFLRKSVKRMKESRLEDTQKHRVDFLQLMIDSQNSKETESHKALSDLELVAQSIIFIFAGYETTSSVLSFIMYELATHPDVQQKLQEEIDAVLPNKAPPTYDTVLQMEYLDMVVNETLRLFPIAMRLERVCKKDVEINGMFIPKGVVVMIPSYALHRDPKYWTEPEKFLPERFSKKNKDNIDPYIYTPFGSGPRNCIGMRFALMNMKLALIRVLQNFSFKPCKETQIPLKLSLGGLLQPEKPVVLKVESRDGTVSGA

For `COC(=O)N[C@@H](C)CNc1nccc(-c2cn(C(C)C)nc2-c2cc(Cl)cc(NS(C)(=O)=O)c2F)n1` [Compound A], the metabolism result in series [1] was “mainly metabolized by CYP3A4”. The 50% inhibitory concentration (IC50) in series [2] amounted to 5 nM. Moreover, in [3], the BCRP inhibition result is recorded as “inhibitor of BCRP”. Also, the IC50 in [4] amounted to 18 nM. Also, in series [5], the IC50 was more than 2700 nM. Moreover, in [6], the IC50 is 30 nM. For the same compound, in series [7], the T/C was 95%, the “Mean Volume Day 1” value came to 122 mm^3, the “Mean Volume Day 29” value stood at 1016 mm^3 and the “Mean Volume Change (ΔT)” value was found to be 894 mm^3. Besides, in series [7], the “Mean BW Nadir, day of nadir” value is reported as “Day 8”; the “Deaths NTR” value is 0; the “Deaths TR” value turned out to be 0; the “Regressions CR” value was found to be 0. Also, in series [7], the “Regressions PR” value was determined as 0 and the “Statistical Significance vs G1” value is on record as “ns (not significant (ns) at P>0.05)”. Besides, in series [8], the IC50 is 319 nM. The “single agent activity on proliferation” value in series [9] is reported as “significant single agent activity”. Also, the half-maximal inhibitory concentration (IC50) in series [10] was found to be 49 nM. For the same compound, in series [11], the IC50 was more than 2700 nM.
Take `Cc1nc(NC(=O)N2CCC[C@H]2C(N)=O)sc1-c1ccnc(C(C)(C)C(F)(F)F)c1` [Compound B, (S)-Pyrrolidine-1,2-dicarboxylic acid 2-amide 1-({4-methyl-5-[2-(2,2,2-trifluoro-1,1-dimethyl-ethyl)-pyridin-4-yl]-thiazol-2-yl}-amide)]: the CYP3A4 inhibition result in series [1] was “time dependent inhibitor of CYP3A4”. Moreover, in series [2], the IC50 is more than 2700 nM. The IC50 in [12] was more than 2700 nM. Besides, in series [3], the BCRP substrate result was “substrate of BCRP”. The IC50 in [4] was more than 2700 nM. Moreover, the IC50 in [5] is more than 2700 nM. Further, the IC50 in series [6] is more than 2700 nM. In series [13], the half-maximal inhibitory concentration (IC50) is more than 2700 nM. This compound also had a bioavailability in series [14] of 58%. Besides, in series [7], the T/C is on record as 57%, the “Mean Volume Day 1” value is listed as 122 mm^3, the “Mean Volume Day 29” value is listed as 660 mm^3 and the “Mean Volume Change (ΔT)” value was found to be 538 mm^3. Moreover, in [7], the “Mean BW Nadir, day of nadir” value is on record as “Day 8”; the “Deaths NTR” value is on record as 0; the “Deaths TR” value is 0; the “Regressions CR” value was determined as 0. For the same compound, in series [7], the “Regressions PR” value turned out to be 0 and the “Statistical Significance vs G1” value is recorded as “ns (not significant (ns) at P>0.05)”. In [10], the IC50 is more than 2700 nM. The half-inhibitory concentration (IC50) in [11] was more than 2700 nM.
`C#Cc1cccc(Nc2ncnc3cc(OCCOC)c(OCCOC)cc23)c1` [Erlotinib, erlotinib, reference compound]: the half-inhibitory concentration (IC50) in series [2], in series [12], in series [4], in series [5], in series [6] and in series [13] was more than 2700 nM in each case. Further, the IC50 in [8], in series [10] and in [11] was more than 2700 nM each time.
Turning to `CC(=O)O[C@H]1C(=O)[C@@]2(C)[C@H]([C@H](OC(=O)c3ccccc3)[C@]3(O)C[C@H](OC(=O)[C@H](O)[C@@H](NC(=O)c4ccccc4)c4ccccc4)C(C)=C1C3(C)C)[C@]1(OC(C)=O)CO[C@@H]1C[C@@H]2O` [Paclitaxel, paclitaxel, reference compound], in [7], the T/C was 11%, the “Mean Volume Day 1” value turned out to be 122 mm^3, the “Mean Volume Day 29” value is 229 mm^3 and the “Mean Volume Change (ΔT)” value amounted to 107 mm^3. Besides, in series [7], the “Mean BW Nadir, day of nadir” value is “Day 11”; the “Deaths NTR” value is listed as 0; the “Deaths TR” value was determined as 0; the “Regressions CR” value was determined as 0. Besides, in series [7], the “Regressions PR” value is 0 and the “Statistical Significance vs G1” value was “** (very significant (“**”) at 0.001<P≦0.01)”.

The record behind these values is patent US9474754B2, “Pharmaceutical combinations comprising a B-RAF inhibitor, and EGFR inhibitor and optionally a PI3K-α inhibitor” (NOVARTIS AG, priority 2012, dated 2016).
